molecular target: T1, human TLR7 (Homo sapiens, UniProt Q9NYK1); assay: TLR7 inhibition reporter assay (HEK-Blue SEAP); format: cell-based; conditions: HEK-Blue cells overexpressing human TLR7, gardiquimod 7.5 μM, 22 hour incubation
T1 construct: host or cells: HEK-Blue cells
T1 sequence (Q9NYK1 27-1049): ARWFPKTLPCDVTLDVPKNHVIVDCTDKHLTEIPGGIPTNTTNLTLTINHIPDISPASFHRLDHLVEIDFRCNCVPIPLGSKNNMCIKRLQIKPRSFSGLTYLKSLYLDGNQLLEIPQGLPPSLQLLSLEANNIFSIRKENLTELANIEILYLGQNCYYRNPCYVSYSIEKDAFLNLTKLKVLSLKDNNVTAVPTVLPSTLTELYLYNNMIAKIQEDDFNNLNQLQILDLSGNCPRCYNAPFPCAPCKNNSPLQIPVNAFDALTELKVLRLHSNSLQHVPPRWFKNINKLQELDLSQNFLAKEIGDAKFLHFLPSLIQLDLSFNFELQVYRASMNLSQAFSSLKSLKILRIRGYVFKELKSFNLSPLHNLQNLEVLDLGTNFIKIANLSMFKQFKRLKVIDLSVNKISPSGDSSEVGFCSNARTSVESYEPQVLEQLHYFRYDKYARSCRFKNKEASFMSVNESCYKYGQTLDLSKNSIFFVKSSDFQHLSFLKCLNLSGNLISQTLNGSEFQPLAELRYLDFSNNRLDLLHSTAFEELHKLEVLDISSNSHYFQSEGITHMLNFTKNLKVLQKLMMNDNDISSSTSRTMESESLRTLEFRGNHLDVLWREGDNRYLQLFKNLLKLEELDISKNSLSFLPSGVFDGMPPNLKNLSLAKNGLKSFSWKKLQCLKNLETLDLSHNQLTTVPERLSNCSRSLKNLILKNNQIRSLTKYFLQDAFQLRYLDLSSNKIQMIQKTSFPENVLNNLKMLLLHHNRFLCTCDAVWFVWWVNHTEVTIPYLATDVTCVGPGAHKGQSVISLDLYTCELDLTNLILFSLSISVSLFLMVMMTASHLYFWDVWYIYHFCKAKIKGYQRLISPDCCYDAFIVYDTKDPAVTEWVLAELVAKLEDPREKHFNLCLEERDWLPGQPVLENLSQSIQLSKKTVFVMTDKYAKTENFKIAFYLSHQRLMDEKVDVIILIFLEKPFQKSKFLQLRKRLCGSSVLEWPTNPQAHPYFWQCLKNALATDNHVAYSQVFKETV
How it was run: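 22 h, 37° C, 5% CO2 incubation; compounds 0.05 nM-50 μM final; TLR7 cells 15000/well, TLR8 20,000/well. Readout: SEAP via HEK-Blue Detection medium. % inhibition = signal reduction versus agonist + DMSO wells, referenced to known inhibitor.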

Question: Which IC50 does the source give for COCCN1CCC(n2c(=O)[nH]c3cc(-c4cc(OC)c5ncnn5c4)c(C(C)C)cc32)CC1 [Example 223, 6-isopropyl-5-(8-methoxy-[1,2,4]triazolo[1,5-a]pyridin-6-yl)-1-(1-(2-methoxyethyl)piperidin-4-yl)-1,3-dihydro-2H-benzo[d]imidazol-2-one] here?
Answer: Its IC50 is 16.9 nM.

Question: With COc1cc(-c2cc3[nH]c(=O)n(C4CCN(CCS(C)(=O)=O)CC4)c3cc2C(C)C)cn2ncnc12 [Example 224, 6-isopropyl-5-(8-methoxy-[1,2,4]triazolo[1,5-a]pyridin-6-yl)-1-(1-(2-(methylsulfonyl)ethyl)piperidin-4-yl)-1,3-dihydro-2H-benzo[d]imidazol-2-one] as the compound, how does the IC50 read?
Answer: Its IC50 is 82.4 nM.

Question: With COCCN1CCC[C@@H](n2c(=O)[nH]c3cc(-c4cc(OC)c5ncnn5c4)c(C(C)C)cc32)C1 [Example 226, (R)-6-isopropyl-5-(8-methoxy-[1,2,4]triazolo[1,5-a]pyridin-6-yl)-1-(1-(2-methoxyethyl)piperidin-3-yl)-1,3-dihydro-2H-benzo[d]imidazol-2-one] as the compound, how does the IC50 read?
Answer: The IC50 was 1.13 nM.

Question: How did the IC50 turn out when CCc1cc2c(cc1-c1cc(OC)c3ncnn3c1)[nH]c(=O)n2[C@@H]1CCCN(CCOC)C1 [Example 227, (R)-6-ethyl-5-(8-methoxy-[1,2,4]triazolo[1,5-a]pyridin-6-yl)-1-(1-(2-methoxyethyl)piperidin-3-yl)-1,3-dihydro-2H-benzo[d]imidazol-2-one] was run?
Answer: The IC50 was 2.86 nM.

Question: For CCc1cc2c(cc1-c1cc(OC)c3ncnn3c1)[nH]c(=O)n2[C@@H]1CCCN(C(=O)CN(C)C)C1 [Example 228, (R)-1-(1-(dimethylglycyl)piperidin-3-yl)-6-ethyl-5-(8-methoxy-[1,2,4]triazolo[1,5-a]pyridin-6-yl)-1,3-dihydro-2H-benzo[d]imidazol-2-one], which IC50 is on record?
Answer: Its IC50 is 34.9 nM.

Question: How did the IC50 turn out when COc1cc(-c2cc3[nH]c(=O)n(C4CCC(N5CCCC5)CC4)c3cc2C(C)C)cn2ncnc12 (stereo not drawn) [Example 231, 6-isopropyl-5-(8-methoxy-[1,2,4]triazolo[1,5-a]pyridin-6-yl)-1-(4-(pyrrolidin-1-yl)cyclohexyl)-1,3-dihydro-2H-benzo[d]imidazol-2-one] was run?
Answer: The IC50 was 1.68 nM.

Question: With COc1cc(-c2cc3[nH]c(=O)n(C4CCC(N5CCCC5)CC4)c3cc2C(C)C)cn2ncnc12 (stereo not drawn) [Example 232, 6-isopropyl-5-(8-methoxy-[1,2,4]triazolo[1,5-a]pyridin-6-yl)-1-(4-(pyrrolidin-1-yl)cyclohexyl)-1,3-dihydro-2H-benzo[d]imidazol-2-one] as the compound, how does the IC50 read?
Answer: Its IC50 is 1.4 nM.

Question: Which IC50 does the source give for COc1cc(-c2cc3[nH]c(=O)n(C4CCC(N5CC(OC)C5)CC4)c3cc2C(C)C)cn2ncnc12 (stereo not drawn) [Example 237, 6-isopropyl-5-(8-methoxy-[1,2,4]triazolo[1,5-a]pyridin-6-yl)-1-(4-(3-methoxyazetidin-1-yl)cyclohexyl)-1,3-dihydro-2H-benzo[d]imidazol-2-one] here?
Answer: Its IC50 is 1.31 nM.

Question: COc1cc(-c2cc3[nH]c(=O)n(C4CCC(N5CC(OC)C5)CC4)c3cc2C(C)C)cn2ncnc12 (stereo not drawn) [Example 238, 6-isopropyl-5-(8-methoxy-[1,2,4]triazolo[1,5-a]pyridin-6-yl)-1-(4-(3-methoxyazetidin-1-yl)cyclohexyl)-1,3-dihydro-2H-benzo[d]imidazol-2-one] was tested. Which IC50 did it give?
Answer: The IC50 was 0.81 nM.

Question: How did the IC50 turn out when COc1cc(-c2cc3[nH]c(=O)n(C4CCC(N5CCC6(CC5)COC6)CC4)c3cc2C(C)C)cn2ncnc12 (stereo not drawn) [Example 239, 1-(4-(2-oxa-7-azaspiro[3.5]nonan-7-yl)cyclohexyl)-6-isopropyl-5-(8-methoxy-[1,2,4]triazolo[1,5-a]pyridin-6-yl)-1,3-dihydro-2H-benzo[d]imidazol-2-one] was run?
Answer: Its IC50 is 1.69 nM.

Question: COc1cc(-c2cc3[nH]c(=O)n(C4CCC(N5CCC6(CC5)COC6)CC4)c3cc2C(C)C)cn2ncnc12 (stereo not drawn) [Example 240, 1-(4-(2-oxa-7-azaspiro[3.5]nonan-7-yl)cyclohexyl)-6-isopropyl-5-(8-methoxy-[1,2,4]triazolo[1,5-a]pyridin-6-yl)-1,3-dihydro-2H-benzo[d]imidazol-2-one] was tested. Which IC50 did it give?
Answer: The IC50 was 3.52 nM.

Question: Which IC50 does the source give for COc1cc(-c2cc3[nH]c(=O)n(C4CCC(N5CCNC(=O)C5)CC4)c3cc2C(C)C)cn2ncnc12 (stereo not drawn) [Example 243, 6-isopropyl-5-(8-methoxy-[1,2,4]triazolo[1,5-a]pyridin-6-yl)-1-(4-(3-oxopiperazin-1-yl)cyclohexyl)-1,3-dihydro-2H-benzo[d]imidazol-2-one] here?
Answer: Its IC50 is 119 nM.

Reference: patent US12187723B2 (BRISTOL-MYERS SQUIBB COMPANY, priority 2019, dated 2025)
